How the values were obtained:
[1] = Standard blood chemistry profile of OA canines for trial period; format: in vivo, canine; conditions: 36 mg/kg/day oral
Experimental: The double-blind study was performed on a total of 30 adult canines of various breeds in five different private practice clinics. Owner consent was obtained prior to participation in the study. Each clinic was responsible for enrolling 6 canines into the study. Inclusion criteria for the study consisted of clinical assessment and radiograph confirmation of OA in at least one joint and a score of 22 or greater on the Helsinki chronic pain index (“HCPI”). Use of NSAIDs or other dietary supplements for OA were allowed, provided the current treatment regimens had not been altered for a period of at least three months. A randomized block design was used with canines assigned in a one to one ratio into either placebo (36 mg/kg/day maltose-dextran; Vireo Resources, Plattsmouth, NE) or Alpha-GEE (36 mg/kg/day; Vireo Resources, Plattsmouth, NE) treatment group. The block size was six canines, corresponding to the total number of canines enrolled from each clinic. Group assignments for each canine were blinded to both the owners and attending veterinarian until all the data was collected and reported. Both Alpha-GEE and placebo were provided in 400 mg capsules and owners were instructed on the proper method for daily oral administration of capsules to their canines and provided with the appropriate number of capsules for the duration of the 2-week study. Blood samples were taken at both the start and conclusion of the two-week trial period to monitor for changes in blood chemistry as well as potential changes in inflammatory markers as described below. Owners completed the HCPI prior to starting the study, one-week after starting the study, and a final time at the conclusion of the study at two-weeks.
In addition to the standard blood chemistry profile, blood samples taken before and at the conclusion of the two-week trial period were analyzed for PGE2 and SAA. Blood samples were collected in heparin tubes for PGE2 and in serum collection tubes for SAA. Both plasma and serum samples were centrifuged at 2000×g for 10 minutes and the plasma and serum supernatants removed and frozen at […] until analyzed for PGE2 and SAA using enzyme-linked immunosorbent assays ([…]). Of the 30 canines enrolled, 8 were excluded from the blood analysis portion of the study due to sampling/storage issues resulting in a lack of a pre- or post-trial sample. As PGE2 is rapidly metabolized in plasma, measurement of PGE2 metabolites is the most reliable method for assessing plasma levels of PGE2. Plasma samples were analyzed for PGE2 using the bicycle PGE2 competitive EIA kit purchased from Cayman Chemical (Ann Arbor, MI). The assay converts PGE2 metabolites into a stable derivative that is measured using EIA. Samples (100 μl) were analyzed in triplicate and PGE2 concentrations determined by use of standard curve. For SAA measurements, a solid phase sandwich EIA kit (Tridelta Development Ltd, Maytooth, Co Kildare, Ireland) was used as described previously.

serum amyloid A = test: Serum amyloid A (solid phase sandwich EIA) in OA canines; format: in vivo, canine; conditions: 36 mg/kg/day oral
Experimental: The double-blind study was performed on a total of 30 adult canines of various breeds in five different private practice clinics. Owner consent was obtained prior to participation in the study. Each clinic was responsible for enrolling 6 canines into the study. Inclusion criteria for the study consisted of clinical assessment and radiograph confirmation of OA in at least one joint and a score of 22 or greater on the Helsinki chronic pain index (“HCPI”). Use of NSAIDs or other dietary supplements for OA were allowed, provided the current treatment regimens had not been altered for a period of at least three months. […]
In addition to the standard blood chemistry profile, blood samples taken before and at the conclusion of the two-week trial period were analyzed for PGE2 and SAA. […] Both plasma and serum samples were centrifuged at 2000×g for 10 minutes and the plasma and serum supernatants removed and frozen at […] until analyzed for PGE2 and SAA using enzyme-linked immunosorbent assays (“HA”). […] Plasma samples were analyzed for PGE2 using the bicycle PGE2 competitive EIA kit purchased from Cayman Chemical (Ann Arbor, MI). The assay converts PGE2 metabolites into a stable derivative that is measured using EIA. Samples (100 μl) were analyzed in triplicate and PGE2 concentrations determined by use of standard curve. […]

Creatinine, post-trial ([1]; mean ± SD after two weeks, pre-trial 1.2 ± 0.7, normal range 0.3-1.4): 1.5 ± 0.7 mg/dL
Total Protein, post-trial ([1]; mean ± SD after two weeks, pre-trial 6.6 ± 0.4, normal range 5.4-8.2): 6.5 ± 0.4 g/dL
BUN, post-trial ([1]; mean ± SD after two weeks, pre-trial 24 ± 22, normal range 7-25): 24 ± 19 mg/dL
Glucose, post-trial ([1]; mean ± SD after two weeks, pre-trial 102 ± 11, normal range 80-110): 101 ± 11 mg/dL
ALP, post-trial ([1]; mean ± SD after two weeks, pre-trial 110 ± 104, normal range 20-150): 103 ± 131 U/L
change in post-trial blood chemistry profiles compared to pre-trial values ([1]; two-week trial): no significant changes
Substance: ethyl (α-guanido-methyl) ethanoate [Alpha-GEE]
ALT, post-trial ([1]; mean ± SD after two weeks, pre-trial 89 ± 99, normal range 10-118): 53 ± 37 U/L
Serum Amyloid A concentration, post-trial (serum amyloid A; mean ± SD after two weeks, pre-trial 673 ± 869, p < 0.05 compared to placebo (1483 ± 1653)): 255 ± 221 ng/mL
SAA levels compared to placebo at the end of the study (serum amyloid A; two-week trial, 36 mg/kg/day): significantly lower

From patent US12629348B2, “Method and composition for treating osteoarthritis” (Vireo Systems, Inc., priority 2013, dated 2026)
